Measurements as given in paper PMC9865040, “Design of A3B-Porphyrin Conjugates with Terpyridine as Potential Theranostic Agents: Synthesis, Complexation with Fe(III), Gd(III), and Photodynamic Activity” (Pharmaceutics, 2023).
One block for each compound: values may come before it.

What was measured:
[1] = standard; cited from earlier work
[2] = set-up: method as in PMID 17020252, PMID 24063545, doi:10.1002/(SICI)1099-1409(199803/04)2:2<145::AID-JPP60>3.0.CO; conditions: in DMF, standard; cited from earlier work
[3] = system: Hep2 cell line (human laryngeal cancer); test: Cell viability study (MTT-test) with and without irradiation; type: cell-based
Protocol: (§1) Biological activity. Cell viability study (MTT-test) on Hep2 (human laryngeal cancer) and NKE (normal kidney epithelial) cell lines. For this study, cells were plated into 96-well plates (BD Micro-FinePlus, Franklin Lakes, USA) (6 × 10^3 cells in 180 μL of culture medium) and incubated for 24 h at 37 °C in 5% CO2. The medium was standard DMEM (PanEco, Moscow, Russia) with penicillin-streptomycin (50 units/mL) (PanEco, Moscow, Russia) supplemented with 10% fetal bovine serum (PanEco, Russia). After this time, culture medium was replaced with a similar volume of Hanks’ solution (PanEco, Russia) with glucose added at a final concentration of 4.5 mg/mL. On the day of the experiment, serial dilutions of the compound in deionised water were made and 20 μL was added to the cell culture. The cell culture thus obtained was irradiated for 90 min using a Medical Therapy Philips TL 20W/52 lamp (wavelength 400–500 nm), power 2.3 mW. In parallel, the cell culture was incubated with the compound in the dark. After 90 min, in both cases, Hanks’ solution with the compound was replaced with DMEM medium without serum. The cell culture was then left for 24 h at 37 °C in 5% CO2 in the dark, after which 10 μL of MTT reagent solution (5 mg/mL, PanEco, Russia) was added and incubated for another 3.5 h. The formed formazan in cells was dissolved in 100 μL DMSO. The optical density of the solution was measured on a MultiScan MCC 340 spectrophotometer (Labsystems, Kennett Square, PA, USA) at 540 nm. Each series of experiments was repeated 3 times. […] Statistical processing of the obtained data was performed using Excel program package (Microsoft).
(§2) Cell viability study (MTT-test). The cytotoxicity of compounds 12 and 14 was studied on a Hep2 cell line (human laryngeal cancer) and NKE (human normal kidney epithelial), with and without irradiation. Two approaches were used when treating the cells. In the first case, compounds 12 and 14 were introduced into the cell culture only for the irradiation time (90 min). After that, the cell medium containing one of the compounds was removed. The cells were incubated in a fresh DMEM medium without compounds for a further 24 h, after which time the results were evaluated. The IC50 values were close for both cell lines (Table 4, Figure 5 and Figure S58). […] The results for the NKE cell line are presented in Table 4 and Figure S58 (Supporting Information).
(§3) In the second series of experiments, cell viability was evaluated 24 h after irradiation without removing the compound from the culture medium.

[4] = system: NKE (human normal kidney epithelial) cell line; test: as above; type: cell-based
Protocol: as §1, §2, §3

[5] = Singlet oxygen quantum yield, DPBF oxidation in DMF, ZnTPP as standard; type: physicochemical; conditions: air-saturated, λ ≥ 500 nm
From the text: Photochemical experiments for singlet oxygen quantum yield determination. Porphyrin-containing samples were irradiated in quartz cells at room temperature in air-saturated DMF solutions. Light source consisted of halogen lamp (150 W), thermal and UV filters, a three-lens spherical condenser with a reflector, and a cut-off filter (λ ≥ 500 nm). The light flux power was 10 mW/cm^2. The efficiency of photosensitised ^1O2 generation in porphyrin solutions was estimated from the dynamics of the absorbance decrease at 415 nm, corresponding to the absorption maximum of the selective ^1O2 acceptor-1,3-diphenylisobenzofuran (DPBF). DPBF was added to the solution of the tested compound in the dark immediately before the start of the photochemical experiment (CDPBF = 0.1 mM). […] The singlet oxygen quantum yield (ΦΔ) were calculated according to the known procedure with ZnTPP being a standard (ΦΔ = 0.74 in DMF).

[6] = Aggregation behaviour, UV-vis absorption and fluorescence spectra in DMF and aqueous solubiliser solutions; type: physicochemical
Protocol: Aggregation behavior, photophysical characterization and solubilisation studies. Photophysical properties of zinc complexes of amphiphilic meso-arylporphyrins and their conjugates with terpyridine were studied in DMF and aqueous solutions of different solubilisers. Stock solutions of 1 mM of the studied compounds in DMF were added upon stirring to a micellar aqueous solution of a solubiliser (3 mL). The final concentration of the porphyrins was 3.5 µM. UV-vis absorption spectra were recorded using HACH DR-4000V spectrophotometer (Hach-Lange, Loveland, CO, USA) within the wavelength range of 320–800 nm with a step of 1 nm in quartz cells (10 mm) at room temperature. Steady-state fluorescence spectra were recorded using Perkin Elmer LS-50 (USA) luminescent spectrometer under similar conditions with the Soret band maximum excitation. Fluorescence quantum yields (ΦF) for Zn(II) complexes in DMF were measured according to the procedure using ZnTPP as a standard (ΦF = 0.033).

[7] = as above; type: physicochemical; conditions: DMSO
[8] = system: NKE cells (human kidney epithelium); test: Comet assay (DNA damage test); type: cell-based; conditions: 1 μg/mL, 24 h, positive control
Protocol: Comet assay. NKE cells (human kidney epithelium) were seeded into 24-well plates at 8 × 10^4 per well and incubated in DMEM medium (PanEco, Russia) with penicillin-streptomycin (50 units/mL) (PanEco, Russia) and 10% fetal bovine serum (PanEco, Russia) at 37 °C in 5% CO2. After 24 h, the medium was changed to a similar one but without serum to avoid interaction of the studied substance with it. […] Cells serving as positive controls were treated with ifosfamide (Baxter Oncology, Germany) at a final concentration of 1 μg/mL. Cell culture with the substances was left for 24 h at 37 °C in 5% CO2. Once this time was reached, the cells were removed from the substrate and washed twice with phosphate-salt buffer (PBS). Direct Comet assay was performed using OxiSelect™ Comet Assay Kit (Cell Biolabs, USA) according to the manufacturer’s protocol. Samples were stained with fluorescent dye Sybr Gold, Invitrogene, USA, and examined with a Zeiss microscope using a filter for FITC-fluorescence. All necessary measurements were performed using the computer program CometScore2.0. Statistics were calculated using Student’s t-test using the Microsoft Excel software package.
During the study, the NKE cells were seeded in 24-well plates. […] After this time, the assay itself was performed using OxiSelect™ Comet Assay Kit (Cell Biolabs, San Diego, CA, USA). […]

SMILES: C1=Cc2nc1c(-c1ccccc1)c1ccc([n-]1)c(-c1ccccc1)c1nc(c(-c3ccccc3)c3ccc([n-]3)c2-c2ccccc2)C=C1.[Zn+2] [ZnTPP]
fluorescence quantum yield ΦF [1]: 0.033
singlet oxygen quantum yield ΦΔ [2]: 0.74

IC50 ([3]; dark conditions, 24 h): 2.55 ± 0.28 µM
IC50 ([3]; light irradiation 8.073 J/cm^2, 24 h, compound not removed): 2.47 ± 0.233 µM
IC50 ([3]; light irradiation 90 min, 8.073 J/cm^2, compound present […] then removed, read after 24 h): 1.87 ± 0.333 µM
singlet oxygen quantum yield [5]: about 65%
solubilisation ([6]; 0.5 mM Tween-80, 1% Cremophor EL and 1% Pluronic F-127): partial solubilisation
lgε ([6]; Brij-58 (0.5 mM)): 5.15
ΔλB (half-width of the Soret band) ([6]; Brij-58 (0.5 mM)): 28 nm
λem, second band ([6]; Brij-58 (0.5 mM)): 660 nm
lgε ([6]; Cremophor (1% Cremophor EL)): 5.35
ΔλB (half-width of the Soret band) ([6]; Cremophor (1% Cremophor EL)): 27 nm
λem, second band ([6]; Cremophor (1% Cremophor EL)): 655 nm
λmax ([6]; Cremophor (1% Cremophor EL)): 430
molar absorption coefficient, times lower than for ZnTPP ([6]; DMF): 1.5 times
λQ (first Q band) ([6]; DMF): 560 nm
lgε ([6]; DMSO): 5.70
ΔλB (half-width of the Soret band) ([6]; H2O): 36 nm
λem, second band ([6]; H2O): 660 nm
lgε ([6]; Pluronic (1% Pluronic F-127)): 5.36
ΔλB (half-width of the Soret band) ([6]; Pluronic (1% Pluronic F-127)): 22 nm
λem, second band ([6]; Pluronic (1% Pluronic F-127)): 658 nm
lgε ([6]; TX-100 (1 mM)): 5.34
ΔλB (half-width of the Soret band) ([6]; TX-100 (1 mM)): 25 nm
lgε ([6]; Tween-80 (0.5 mM)): 5.40
ΔλB (half-width of the Soret band) ([6]; Tween-80 (0.5 mM)): 19 nm
ΔλB (half-width of the Soret band) [7]: 10 nm
SMILES: CCCCCCOc1ccc(-c2c3nc(c(-c4ccc(OCCCCCC)cc4)c4ccc([n-]4)c(-c4ccc(OCc5ccc(-c6cc(-c7ccccn7)nc(-c7ccccn7)c6)cc5)cc4)c4nc(c(-c5ccc(OCCCCCC)cc5)c5ccc2[n-]5)C=C4)C=C3)cc1.[Zn+2] [compound 12]
toxic effect without irradiation ([3]; dark, […] incubation, studied concentration range): no toxic effect
IC50 ([4]; dark conditions, 24 h): 2.44 ± 0.281 µM
IC50 ([4]; light irradiation 8.073 J/cm^2, 24 h): 2.57 ± 0.32 µM
IC50 ([4]; light irradiation 8.073 J/cm^2, […]): 1.7 ± 0.297 µM

SMILES: O=P1(NCCCl)OCCCN1CCCl (centres unmarked) [ifosfamide]
proportion of 'comet' cells [8]: 36.1 ± 2.14%
